Among the data in US11724997B2, “Compounds and compositions for treating conditions associated with APJ receptor activity” (Annapurna Bio, Inc., priority 2018, dated 2023) are EC50 values, retold here.

This assay addresses T1, APJ Receptor (Homo sapiens, UniProt P35414).
T1 sequence (P35414 1-380): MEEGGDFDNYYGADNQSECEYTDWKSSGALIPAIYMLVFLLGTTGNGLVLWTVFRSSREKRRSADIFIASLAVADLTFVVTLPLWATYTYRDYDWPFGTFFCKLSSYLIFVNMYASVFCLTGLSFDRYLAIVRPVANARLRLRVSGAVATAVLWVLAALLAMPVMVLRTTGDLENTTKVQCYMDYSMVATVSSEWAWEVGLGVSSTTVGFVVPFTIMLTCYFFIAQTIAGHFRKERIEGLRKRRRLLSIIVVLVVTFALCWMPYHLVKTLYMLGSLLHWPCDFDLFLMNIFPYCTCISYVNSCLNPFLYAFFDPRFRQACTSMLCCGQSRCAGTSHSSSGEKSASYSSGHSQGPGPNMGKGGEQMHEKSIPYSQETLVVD
The experiment in a line: APJ cAMP assay: inhibition of forskolin-stimulated cAMP, enzyme fragment complementation, in CHO-K1 cells stably expressing the APJ Receptor. The format is cell-based. To be noted: CHO-K1 cell line (DiscoverX) stably expressing APJ Receptor; EC80 forskolin; 30 minutes at 37° C.; read-out: APJ cAMP EC50 Potency range. The text has this: Activation of APJ receptor is known to inhibit forskolin-stimulated cyclic AMP (cAMP) production in cells in a pertussis toxin-sensitive manner which indicates primary coupling to the GαI subunit of the G protein heterotrimeric complex. In addition to signaling through G protein and inhibition of cAMP, APJ receptor activation also results in β-arrestin recruitment, receptor internalization and activation of extracellular-regulated kinases (ERKs).
In order to optimize functional activity directed toward Gi coupling we utilized a CHO-K1 cell line developed by DiscoverX stably expressing the APJ Receptor. Cells expressing APJR receptor were plated in a 384-well microtiter plates and incubated overnight at 37° C. with 5% CO2 to allow the cells to attach and grow. Media was then aspirated from the cells and replaced with 15 uL 2:1 Hanks Balanced Salt Solution (HBSS)/10 mM Hepes. cAMP XS+ Ab reagent. Five microliters (5 uL) of previously generated compound sample stocks at 4× final concentration in assay buffer containing 4×EC80 forskolin were then added to the cells and allowed to incubate at 37° C. for 30 minutes.
After incubation the assay signal was generated using a technology termed enzyme fragment complementation (EFC). In EFC the enzyme B-galactosidase is split into two complementary portions (EA and ED). The fragment ED is fused to cAMP and in the assay format competes with endogenous cAMP for binding to a cAMP specific antibody. Activated B-Gal is formed when exogenous EA fragment binds to free ED-cAMP (not bound to cAMP specific antibody). Activated enzyme levels are detected through conversion of B-gal chemiluminescent substrate which generates a detectable luminescence signal and read on standard microtiter plate.
The methodology for detection of cAMP using EFC requires incubation with 20 uL of cAMP XS+ ED/CL lysis cocktail for one hour followed by incubation with 20 uL cAMP XS+ EA reagent for three hours at room temperature. Microplates were read following signal generation with a PerkinElmer Envision instrument utilizing chemiluminescent signal detection.
Compound activity was analyzed using CBIS data analysis suite (ChemInnovation, CA).
Percentage activity was calculated using the following formula: % Activity=[…]×(1−(mean RLU of test sample−mean RLU of Max control)/(mean RLU of vehicle control−mean RLU of Max control))
The biological activity of the exemplified compounds of this invention determined by the assay described above is shown in Table 1. The APJ cAMP EC50 potency ranges are as follows: A: EC50<1 nM; B: 1≤EC50<100 nM; and C: 100≤EC50<10,000 nM.

Bounds are passed on as bounds.

The EC50 is the midpoint of the concentration-response curve. Regarding `COc1cccc(OC)c1-n1c(C(=O)NS(=O)(=O)Cc2ccccc2)nnc1-c1cccc(OC(F)F)n1` [Example 21, N-(benzylsulfonyl)-5-(6-(difluoromethoxy)pyridin-2-yl)-4-(2,6-dimethoxyphenyl)-4H-1,2,4-triazole-3-carboxamide], the EC50 lay within 1 to 100 nM.

For `COc1cccc(OC)c1-n1c(C(=O)NS(=O)(=O)Cc2ncccn2)nnc1-c1cccc(OC(F)F)n1` [Example 22, 5-(6-(Difluoromethoxy)pyridin-2-yl)-4-(2,6-dimethoxyphenyl)-N-((pyrimidin-2-ylmethyl)sulfonyl)-4H-1,2,4-triazole-3-carboxamide], the EC50 was 1 to 100 nM.

Regarding `COc1cccc(OC)c1-n1c(C(=O)NS(=O)(=O)Cc2ncccn2)nnc1-c1ccc(F)c(OC)n1` [Example 23, 4-(2,6-Dimethoxyphenyl)-5-(5-fluoro-6-methoxypyridin-2-yl)-N-((pyrimidin-2-ylmethyl)sulfonyl)-4H-1,2,4-triazole-3-carboxamide], the EC50 lay in the range of 100 to 10000 nM.

In the case of `COc1cccc(OC)c1-n1c(C(=O)NS(=O)(=O)Cc2ncc(C)cn2)nnc1-c1ccc(C)cn1` [Example 24, 4-(2,6-Dimethoxyphenyl)-5-(5-methylpyridin-2-yl)-N-(((5-methylpyrimidin-2-yl)methyl)sulfonyl)-4H-1,2,4-triazole-3-carboxamide], the EC50 lay in the range of 100 to 10000 nM.

As to `COc1cccc(OC)c1-n1c(C(=O)NS(=O)(=O)Cc2ncccn2)nnc1-c1cc(C)ccn1` [Example 25, 4-(2,6-Dimethoxyphenyl)-5-(4-methylpyridin-2-yl)-N-((pyrimidin-2-ylmethyl)sulfonyl)-4H-1,2,4-triazole-3-carboxamide], the EC50 fell in the range of 100 to 10000 nM.

As for `COc1cccc(-c2nnc(C(=O)NS(=O)(=O)Cc3ncccn3)n2-c2c(OC)cccc2OC)n1` [Example 26, 4-(2,6-dimethoxyphenyl)-5-(6-methoxypyridin-2-yl)-N-((pyrimidin-2-ylmethyl)sulfonyl)-4H-1,2,4-triazole-3-carboxamide], the EC50 was less than 1 nM.

With `COc1cccc(-c2nnc(C(=O)NS(=O)(=O)Cc3ncc(C)cn3)n2-c2c(OC)cccc2OC)n1` [Example 27, 4-(2,6-Dimethoxyphenyl)-5-(6-methoxypyridin-2-yl)-N-(((5-methylpyrimidin-2-yl)methyl)sulfonyl)-4H-1,2,4-triazole-3-carboxamide], the EC50 is less than 1 nM.

`COc1cccc(-c2nnc(C(=O)NS(=O)(=O)Cc3ccccn3)n2-c2c(OC)cccc2OC)n1` [Example 28, 4-(2,6-Dimethoxyphenyl)-5-(6-methoxypyridin-2-yl)-N-((pyridin-2-ylmethyl)sulfonyl)-4H-1,2,4-triazole-3-carboxamide]: the EC50 was less than 1 nM.

For `COc1cccc(-c2nnc(C(=O)NS(=O)(=O)Cc3ncc(Cl)cn3)n2-c2c(OC)cccc2OC)n1` [Example 29, N-(((5-chloropyrimidin-2-yl)methyl)sulfonyl)-4-(2,6-dimethoxyphenyl)-5-(6-methoxypyridin-2-yl)-4H-1,2,4-triazole-3-carboxamide], the EC50 is less than 1 nM.

As for `COc1cccc(-c2nnc(C(=O)NS(=O)(=O)Cc3cccc(F)c3)n2-c2c(OC)cccc2OC)n1` [Example 30, 4-(2,6-Dimethoxyphenyl)-N-((3-fluorobenzyl)sulfonyl)-5-(6-methoxypyridin-2-yl)-4H-1,2,4-triazole-3-carboxamide], the EC50 lay in the range of 1 to 100 nM.

As for `COc1cccc(-c2nnc(C(=O)NS(=O)(=O)Cc3ccc(F)cc3)n2-c2c(OC)cccc2OC)n1` [Example 31, 4-(2,6-Dimethoxyphenyl)-N-((4-fluorobenzyl)sulfonyl)-5-(6-methoxypyridin-2-yl)-4H-1,2,4-triazole-3-carboxamide], the EC50 was less than 1 nM.

For `COc1cccc(-c2nnc(C(=O)NS(=O)(=O)CC3CCCCC3)n2-c2c(OC)cccc2OC)n1` [Example 34, N-((cyclohexylmethyl)sulfonyl)-4-(2,6-dimethoxyphenyl)-5-(6-methoxypyridin-2-yl)-4H-1,2,4-triazole-3-carboxamide], the EC50 is less than 1 nM.

On to `COc1cccc(-c2nnc(C(=O)NS(=O)(=O)CC3CC3)n2-c2c(OC)cccc2OC)n1` [Example 35, N-((cyclopropylmethyl)sulfonyl)-4-(2,6-dimethoxyphenyl)-5-(6-methoxypyridin-2-yl)-4H-1,2,4-triazole-3-carboxamide], for which the EC50 lay in the range of 1 to 100 nM.

As to `COc1cccc(-c2nnc(C(=O)NS(=O)(=O)Cc3cncnc3)n2-c2c(OC)cccc2OC)n1` [Example 36, 4-(2,6-Dimethoxyphenyl)-5-(6-methoxypyridin-2-yl)-N-((pyrimidin-5-ylmethyl)sulfonyl)-4H-1,2,4-triazole-3-carboxamide], the EC50 was in the range of 1 to 100 nM.

As to `COc1cccc(-c2nnc(C(=O)NS(=O)(=O)Cc3cnccn3)n2-c2c(OC)cccc2OC)n1` [Example 37, 4-(2,6-Dimethoxyphenyl)-5-(6-methoxypyridin-2-yl)-N-((pyrazin-2-ylmethyl)sulfonyl)-4H-1,2,4-triazole-3-carboxamide], the EC50 fell in the range of 1 to 100 nM.

With `CCOc1cccc(-c2nnc(C(=O)NS(=O)(=O)Cc3ncc(C)cn3)n2-c2c(OC)cccc2OC)n1` [Example 38, 4-(2,6-Dimethoxyphenyl)-5-(6-ethoxypyridin-2-yl)-N-(((5-methylpyrimidin-2-yl)methyl)sulfonyl)-4H-1,2,4-triazole-3-carboxamide], the EC50 was less than 1 nM.

Take `CCOc1cccc(-c2nnc(C(=O)NS(=O)(=O)Cc3ncccn3)n2-c2c(OC)cccc2OC)n1` [Example 41, 4-(2,6-Dimethoxyphenyl)-5-(6-ethoxypyridin-2-yl)-N-((pyrimidin-2-ylmethyl)sulfonyl)-4H-1,2,4-triazole-3-carboxamide]: the EC50 was less than 1 nM.

Turning to `CCOc1cccc(-c2nnc(C(=O)NS(=O)(=O)Cc3ncc(F)cn3)n2-c2c(OC)cccc2OC)n1` [Example 42, 4-(2,6-Dimethoxyphenyl)-5-(6-ethoxypyridin-2-yl)-N-(((5-fluoropyrimidin-2-yl)methyl)sulfonyl)-4H-1,2,4-triazole-3-carboxamide], the EC50 is less than 1 nM.

As for `CCOc1cccc(-c2nnc(C(=O)NS(=O)(=O)Cc3ncc(Cl)cn3)n2-c2c(OC)cccc2OC)n1` [Example 43, N-(((5-chloropyrimidin-2-yl)methyl)sulfonyl)-4-(2,6-dimethoxyphenyl)-5-(6-ethoxypyridin-2-yl)-4H-1,2,4-triazole-3-carboxamide], the EC50 is less than 1 nM.

Take `CCOc1cccc(-c2nnc(C(=O)NS(=O)(=O)Cc3ncc(OC)cn3)n2-c2c(OC)cccc2OC)n1` [Example 44, 4-(2,6-Dimethoxyphenyl)-5-(6-ethoxypyridin-2-yl)-N-(((5-methoxypyrimidin-2-yl)methyl)sulfonyl)-4H-1,2,4-triazole-3-carboxamide]: the EC50 is less than 1 nM.

On to `CCOc1cccc(-c2nnc(C(=O)NS(=O)(=O)CCc3ccncc3)n2-c2c(OC)cccc2OC)n1` [Example 49, 4-(2,6-Dimethoxyphenyl)-5-(6-ethoxypyridin-2-yl)-N-((2-(pyridin-4-yl)ethyl)sulfonyl)-4H-1,2,4-triazole-3-carboxamide], for which the EC50 was less than 1 nM.

On to `CCOc1cccc(-c2nnc(C(=O)NS(=O)(=O)CCc3cccnc3)n2-c2c(OC)cccc2OC)n1` [Example 50, 4-(2,6-Dimethoxyphenyl)-5-(6-ethoxypyridin-2-yl)-N-((2-(pyridin-3-yl)ethyl)sulfonyl)-4H-1,2,4-triazole-3-carboxamide], for which the EC50 was less than 1 nM.

Regarding `CCOc1cccc(-c2nnc(C(=O)NS(=O)(=O)CCc3ccccn3)n2-c2c(OC)cccc2OC)n1` [Example 51, 4-(2,6-Dimethoxyphenyl)-5-(6-ethoxypyridin-2-yl)-N-((2-(pyridin-2-yl)ethyl)sulfonyl)-4H-1,2,4-triazole-3-carboxamide], the EC50 is less than 1 nM.
